{"source": "ChEMBL document CHEMBL5625206", "about": "“Design, synthesis, and evaluation of novel pleuromutilin aryl acrylate derivatives as promising broad-spectrum antibiotics especially for combatting multi-drug resistant gram-negative bacteria” (Eur J Med Chem, 2023)", "key": {"[1]": {"assay": "Toxicity in fasted male Sprague-Dawley rat assessed as animal growth rate at 500 mg/kg, IG measured for 14 days (reference value: 46.53 +/- 3.19 g)", "assay_type": "organism-based", "conditions": "in vivo, po, 336 h, time 14 day"}, "Staphylococcus aureus [2]": {"system": "Staphylococcus aureus", "assay": "Disruption of cell membrane integrity in methicillin-resistant Staphylococcus aureus ATCC 33591 assessed as increase in red fluorescence at 1 to 4 times MIC incubated for 2 hrs by MycoLight green JJ98/PI staining based analysis", "assay_type": "functional, organism-based"}, "Escherichia coli [3]": {"system": "Escherichia coli", "assay": "Induction of cell damage in Escherichia coli ATCC 25922 assessed as decrease in intracellular ATP concentration at MIC incubated for 30 mins by fluorescence based analysis relative to control", "assay_type": "functional", "design": "scale not given: the % may be the effect or the level left", "conditions": "0.5 h"}, "[4]": {"assay": "Toxicity in fasted female Sprague-Dawley rat assessed as body weight at 100 mg/kg, IG measured on same day (reference value: 165.2 +/- 8.1 g)", "assay_type": "organism-based", "conditions": "in vivo, po"}, "Escherichia coli [5]": {"system": "Escherichia coli", "assay": "Bactericidal activity against Escherichia coli ATCC 25922 incubated for 24 hrs by time kill assay", "assay_type": "functional, organism-based"}, "[6]": {"assay": "Toxicity in fasted male Sprague-Dawley rat assessed as body weight at 331 mg/kg, IG measured on same day (reference value: 212.7 +/- 13.2 g)", "assay_type": "organism-based", "conditions": "in vivo, po"}, "Staphylococcus aureus [7]": {"system": "Staphylococcus aureus", "assay": "Bactericidal activity against methicillin-resistant Staphylococcus aureus ATCC 33591 incubated for 24 hrs by time kill assay", "assay_type": "functional, organism-based"}, "[8]": {"assay": "Clearance in fasted Sprague-Dawley rat at 1 mg/kg, iv by LC-MS/MS analysis", "assay_type": "ADME, organism-based", "conditions": "in vivo"}, "[9]": {"assay": "Toxicity in fasted male Sprague-Dawley rat assessed as relative liver weight ratio at 148 mg/kg, IG measured for 14 days (reference value: 3.616 +/- 0.286)", "assay_type": "organism-based", "conditions": "in vivo, po, 336 h, time 14 day"}, "[10]": {"assay": "Toxicity in fasted female Sprague-Dawley rat assessed as relative spleen weight ratio at 148 mg/kg, IG measured for 14 days (reference value: 0.223 +/- 0.019)", "assay_type": "organism-based", "conditions": "in vivo, po, 336 h, time 14 day"}, "[11]": {"assay": "Toxicity in Sprague-Dawley rat assessed as abnormal clinical symptoms at 10 to 100 mg/kg, IG measured for 14 days", "assay_type": "organism-based", "conditions": "in vivo, po, 336 h, dose 10-100 mg/kg, time 14 day"}, "Escherichia coli [12]": {"system": "Escherichia coli", "assay": "Disruption of cell membrane integrity in Escherichia coli ATCC 25922 assessed as rough cell surface at MIC incubated for 4 hrs by FESEM analysis", "assay_type": "functional, organism-based"}, "Staphylococcus aureus [13]": {"system": "Staphylococcus aureus", "assay": "Antibacterial activity against methicillin-resistant Staphylococcus aureus ATCC 33591 assessed as bacterial growth inhibition incubated for 24 hrs by CLSI based broth microdilution method", "assay_type": "functional"}, "[14]": {"assay": "Toxicity in fasted female Sprague-Dawley rat assessed as relative liver weight ratio at 148 mg/kg, IG measured for 14 days (reference value: 3.199 +/- 0.062)", "assay_type": "organism-based", "conditions": "in vivo, po, 336 h, time 14 day"}, "[15]": {"system": "Staphylococcus epidermidis", "assay": "Antibacterial activity against Staphylococcus epidermidis ATCC 12228 assessed as bacterial growth inhibition incubated for 24 hrs by CLSI based broth microdilution method", "assay_type": "functional"}, "Acinetobacter baumannii": {"system": "Acinetobacter baumannii", "assay": "Antibacterial activity against Acinetobacter baumannii ATCC 19606 assessed as bacterial growth inhibition incubated for 24 hrs by CLSI based broth microdilution method", "assay_type": "functional"}, "[16]": {"assay": "Toxicity in fasted female Sprague-Dawley rat assessed as body weight at 500 mg/kg, IG measured after 7 days (reference value: 188.2 +/- 9.2 g)", "assay_type": "organism-based", "conditions": "in vivo, po, 168 h, time 7 day"}, "[17]": {"assay": "Toxicity in fasted male Sprague-Dawley rat assessed as animal growth rate at 100 mg/kg, IG measured for 14 days (reference value: 46.53 +/- 3.19 g)", "assay_type": "organism-based", "conditions": "in vivo, po, 336 h, time 14 day"}, "[18]": {"assay": "Toxicity in fasted male Sprague-Dawley rat assessed as animal growth rate at 224 mg/kg, IG measured for 14 days (reference value: 46.53 +/- 3.19 g)", "assay_type": "organism-based", "conditions": "in vivo, po, 336 h, time 14 day"}, "[19]": {"assay": "Toxicity in fasted female Sprague-Dawley rat assessed as relative spleen weight ratio at 500 mg/kg, IG measured for 14 days (reference value: 0.223 +/- 0.019)", "assay_type": "organism-based", "conditions": "in vivo, po, 336 h, time 14 day"}, "[20]": {"assay": "Toxicity in fasted male Sprague-Dawley rat assessed as relative kidney weight ratio at 331 mg/kg, IG measured for 14 days (reference value: 0.820 +/- 0.072)", "assay_type": "organism-based", "conditions": "in vivo, po, 336 h, time 14 day"}, "[21]": {"assay": "Toxicity in fasted male Sprague-Dawley rat assessed as body weight at 100 mg/kg, IG measured after 14 days (reference value: 311.2 +/- 13.6 g)", "assay_type": "organism-based", "conditions": "in vivo, po, 336 h, time 14 day"}, "[22]": {"assay": "Toxicity in fasted male Sprague-Dawley rat assessed as body weight at 331 mg/kg, IG measured after 7 days (reference value: 260.5 +/- 12.7 g)", "assay_type": "organism-based", "conditions": "in vivo, po, 168 h, time 7 day"}, "[23]": {"assay": "Toxicity in fasted female Sprague-Dawley rat assessed as relative spleen weight ratio at 331 mg/kg, IG measured for 14 days (reference value: 0.223 +/- 0.019)", "assay_type": "organism-based", "conditions": "in vivo, po, 336 h, time 14 day"}, "Escherichia coli [24]": {"system": "Escherichia coli", "assay": "Bactericidal activity against Escherichia coli ATCC 25922 assessed as reduction in colony count at 2 times MIC incubated for 24 hrs by time kill assay relative to control", "assay_type": "functional"}, "[25]": {"assay": "Toxicity in fasted female Sprague-Dawley rat assessed as relative lung weight ratio at 331 mg/kg, IG measured for 14 days (reference value: 0.534 +/- 0025)", "assay_type": "organism-based", "conditions": "in vivo, po, 336 h, time 14 day"}, "[26]": {"assay": "Toxicity in fasted female Sprague-Dawley rat assessed as body weight at 148 mg/kg, IG measured after 14 days (reference value: 214.3 +/- 9.8 g)", "assay_type": "organism-based", "conditions": "in vivo, po, 336 h, time 14 day"}, "[27]": {"assay": "Toxicity in fasted male Sprague-Dawley rat assessed as relative kidney weight ratio at 148 mg/kg, IG measured for 14 days (reference value: 0.820 +/- 0.072)", "assay_type": "organism-based", "conditions": "in vivo, po, 336 h, time 14 day"}, "Escherichia coli [28]": {"system": "Escherichia coli", "assay": "Induction of extracellular electrical conductivity in Escherichia coli ATCC 25922 at 2 times MIC incubated for 8 hrs relative to control", "assay_type": "functional"}, "Staphylococcus aureus [29]": {"system": "Staphylococcus aureus", "assay": "Antibacterial activity against methicillin-resistant Staphylococcus aureus ATCC 33591 infected in neutropenic Kunming mouse model assessed as bacterial load reduction in liver at 10 to 20 mg/kg, ip measured after 2 days", "assay_type": "functional, organism-based", "conditions": "dose 10-20 mg/kg, time 2.0 day"}, "[30]": {"system": "Mesomycoplasma hyopneumoniae", "assay": "Anti-mycoplasma activity against Mycoplasma hyopneumoniae LH-NCTC10130 assessed as bacterial growth inhibition incubated for 7 days", "assay_type": "functional", "conditions": "Mesomycoplasma hyopneumoniae, LH-NCTC10130, 168 h; time 7 day; read-out: MIC"}, "Staphylococcus aureus [31]": {"system": "Staphylococcus aureus", "assay": "Antibacterial activity against Staphylococcus aureus ATCC 29213 assessed as bacterial growth inhibition incubated for 24 hrs by CLSI based broth microdilution method", "assay_type": "functional"}, "Mycoplasmopsis synoviae": {"system": "Mycoplasmopsis synoviae", "assay": "Anti-mycoplasma activity against Mycoplasmopsis synoviae MS-MVU1852-NCTC10124 assessed as bacterial growth inhibition incubated for 7 days", "assay_type": "functional", "conditions": "MS-MVU1852-NCTC10124, 168 h, time 7 day"}, "[32]": {"assay": "Toxicity in fasted male Sprague-Dawley rat assessed as animal growth rate at 331 mg/kg, IG measured for 14 days (reference value: 46.53 +/- 3.19 g)", "assay_type": "organism-based", "conditions": "in vivo, po, 336 h, time 14 day"}, "Escherichia coli [33]": {"system": "Escherichia coli", "assay": "Induction of extracellular electrical conductivity in Escherichia coli ATCC 25922 at MIC incubated for 8 hrs relative to control", "assay_type": "functional"}, "[34]": {"assay": "Cytotoxicity against HEK293 cells incubated for 24 hrs by CCK8 assay", "assay_type": "toxicity, cell-based", "conditions": "human"}, "[35]": {"assay": "Toxicity in fasted female Sprague-Dawley rat assessed as body weight at 500 mg/kg, IG measured on same day (reference value: 165.2 +/- 8.1 g)", "assay_type": "organism-based", "conditions": "in vivo, po"}}, "note": "The source made the active and inactive calls. The rule behind the calls is not given here.", "data": [{"compound": "C=C[C@]1(C)C[C@@H](OC(=O)COC(=O)/C=C/c2ccc(N(C)C)cc2)[C@]2(C)[C@H](C)CC[C@]3(CCC(=O)[C@H]32)[C@@H](C)[C@@H]1O", "values": [{"measurement": "Activity", "setting": "[1]", "result": 43.65, "unit": "%"}, {"measurement": "Activity", "setting": "Staphylococcus aureus [2]", "result": "Active"}, {"measurement": "Activity", "setting": "Escherichia coli [3]", "result": 50.75, "unit": "%"}, {"measurement": "Activity", "setting": "[4]", "result": 163.6, "unit": "g"}, {"measurement": "Activity", "setting": "Escherichia coli [5]", "result": "Dose-Dependent Effect"}, {"measurement": "Activity", "setting": "[6]", "result": 217.4, "unit": "g"}, {"measurement": "Activity", "setting": "Staphylococcus aureus [7]", "result": "Dose-Dependent Effect"}, {"measurement": "clearance", "setting": "[8]", "result": 35, "unit": "mL/min/kg"}, {"measurement": "Ratio", "setting": "[9]", "result": 3.59}, {"measurement": "Ratio", "setting": "[10]", "result": 0.238}, {"measurement": "Activity", "setting": "[11]", "result": "Non-Toxic"}, {"measurement": "Activity", "setting": "Escherichia coli [12]", "result": "Active"}, {"measurement": "MIC", "setting": "Staphylococcus aureus [13]", "result": 2, "unit": "µg/mL"}, {"measurement": "Ratio", "setting": "[14]", "result": 3.193}, {"measurement": "MIC", "setting": "[15]", "result": 1, "unit": "µg/mL"}, {"measurement": "MIC", "setting": "Acinetobacter baumannii", "result": 32, "unit": "µg/mL"}, {"measurement": "Activity", "setting": "[16]", "result": 181.3, "unit": "g"}, {"measurement": "Activity", "setting": "[17]", "result": 46.18, "unit": "%"}, {"measurement": "Activity", "setting": "[18]", "result": 45.2, "unit": "%"}, {"measurement": "Ratio", "setting": "[19]", "result": 0.23}, {"measurement": "Ratio", "setting": "[20]", "result": 0.831}, {"measurement": "Activity", "setting": "[21]", "result": 314.5, "unit": "g"}, {"measurement": "Activity", "setting": "[22]", "result": 268, "unit": "g"}, {"measurement": "Ratio", "setting": "[23]", "result": 0.247}, {"measurement": "Activity", "setting": "Escherichia coli [24]", "result": 6.14, "unit": "log10CFU/ml"}, {"measurement": "Ratio", "setting": "[25]", "result": 0.528}, {"measurement": "Activity", "setting": "[26]", "result": 210.5, "unit": "g"}, {"measurement": "Ratio", "setting": "[27]", "result": 0.799}, {"measurement": "Activity", "setting": "Escherichia coli [28]", "result": 20.78, "unit": "%"}, {"measurement": "Activity", "setting": "Staphylococcus aureus [29]", "result": "Active"}, {"measurement": "MIC", "setting": "[30]", "result": 0.002, "unit": "µg/mL"}, {"measurement": "MIC", "setting": "Staphylococcus aureus [31]", "result": 2, "unit": "µg/mL"}, {"measurement": "MIC", "setting": "Mycoplasmopsis synoviae", "result": 0.008, "unit": "µg/mL"}, {"measurement": "Activity", "setting": "[32]", "result": 40.48, "unit": "%"}, {"measurement": "Activity", "setting": "Escherichia coli [33]", "result": 15.45, "unit": "%"}, {"measurement": "CC50 at 24 h", "setting": "[34]", "result": 34.6, "unit": "µM"}, {"measurement": "Activity", "setting": "[35]", "result": 159.5, "unit": "g"}]}]}
